In patent EP2735339B1, “Extract and isolated compounds from Drechslera rostrata and/or Eurotium tonophilum for use as anti-leishmania-major agents” (King Saud University, priority 2012, dated 2014):
pIC50: −log10 of the molar value. In brackets after ≈: the same amount, converted by molar mass. Like-named read-outs stand apart in the source and are kept apart here.

Columns and labels:
[1] = tested on: Leishmania major; experiment: In vivo anti-leishmanial activity, lesion size in infected mice under oral treatment; settings: for Mean + SD lesion size(mm), day 1 of treatment: day 1 of oral treatment; for Mean + SD lesion size(mm), day 1 of treatment / Mean + SD lesion size(mm), day 4 of treatment / Mean + SD lesion size(mm), day 8 of treatment / Mean + SD lesion size(mm), day 11 of treatment / Mean + SD lesion size(mm), day 15 of treatment / Mean + SD lesion size(mm), day 18 of treatment / Mean + SD lesion size(mm), day 25 of treatment / Mean + SD lesion size(mm), day 28 of treatment: mice infected with L.major, n = 6; for Mean + SD lesion size(mm), day 4 of treatment: day 4 of oral treatment; for Mean + SD lesion size(mm), day 8 of treatment: day 8 of oral treatment; for Mean + SD lesion size(mm), day 11 of treatment: day 11 of oral treatment; for Mean + SD lesion size(mm), day 15 of treatment: day 15 of oral treatment; for Mean + SD lesion size(mm), day 18 of treatment: day 18 of oral treatment; for Mean + SD lesion size(mm), day 25 of treatment: day 25 of oral treatment; for Mean + SD lesion size(mm), day 28 of treatment: day 28 of oral treatment
Description: Balb/c mice ([…]) males were provided by Girls collage of science, Zoology department, King Saud University, Riyadh, KSA). The animals were housed in standard plastic cages and were maintained on standard feed and water ad libitum.
Each mouse was inoculated in the lumbar area with 10^7 of stationary phase Leishmania major suspended in 0.1 ml RPMI medium. The mice were kept at the animal house for 3-4 weeks till the lesion was observed. Extracts were administrated orally (400 mg/kg mouse body weight) daily until complete recovery from the lesion. Liver functions tests and histopathological examination of organs (liver, spleen and kidney) were done at the end of study.

[2] = tested on: Promastigotes of the reference strain of Leishmania major; experiment: In vitro anti-leishmanial activity, MTT assay on promastigotes; type: cell-based; settings: 72 hours, 26 °C
Description: Parasite: Promastigotes of the reference strain of Leishmania major were grown in RPMI-1640 medium supplemented with 10.000 Unites penicillin 10 µg of treptomycin/ml and 10 % heat inactivated fetal calf serum in 50 ml Nunc flasks at 26 °C in a dark environment. All experiments were performed with parasite cultures in the stationary phase by allowing them to grow for seven days.
Promastigotes were resuspended in fresh medium to achieve 10^6 parasites/ml and were seeded in 96-well Nunc culture plate, each well containing 100 µl medium with different concentrations of total extracts for both fungi (Drechslera rostrata and Eurotium tonophilum) in addition to the four isolated compounds. Control wells received only culture medium. The plates were incubated in 26 °C for 72 hours and Promastigotes viability was evaluated by the quantitative colorimetric MTT assay. The alteration of MTT to the formazan product by the mitochondrial electron transport chain is an indicator of cell viability, and a decrease in the amount of MTT converted indicated toxicity to the cell.
Briefly, the MTT labeling reagent was added to each well to the final concentration of 0.25 mg/ml. After incubation for 3 hours at 26 °C, DMSO was added to dissolve the formazan crystals and obtain a homogeneous blue solution suitable for measurement of the absorbance with an enzyme-linked immunosorbent assay plate reader (wave length 492).
Percent growth inhibition of the parasite was calculated by the following formula: % of inhibition = ((OD control-OD drugs))/(OD control) X 100 [formula]
The concentration inhibiting 50 % of the parasite growth (IC50) was calculated after evaluating percent growth inhibition at different concentrations. Reference compound was Pentostam.
Stock solutions of the total extracts , compounds, plus control drugs, were prepared at a concentration of 20 mg mL-1 in DMSO (Sigma, UK), and diluted to appropriate concentrations prior to assays. IC50 values were calculated with MSXLFIT (IDBS, UK) Djalma et al., J. Braz. Chem. Soc. Vol. 20, No. 4, 644-651, (2009).

[3] = tested on: leishmania; settings: against leishmania; cited from earlier work
[4] = tested on: leishmania; settings: antileishmanial activity; cited from earlier work
[5] = tested on: Leishmania amazonensis; settings: growth of Leishmania amazonensis; cited from earlier work
[6] = tested on: Leishmania spp; settings: growth of Leishmania spp; cited from earlier work

Compound	Mean + SD lesion size(mm), day 1 of treatment [1]	Mean + SD lesion size(mm), day 4 of treatment [1]	Mean + SD lesion size(mm), day 8 of treatment [1]	Mean + SD lesion size(mm), day 11 of treatment [1]	Mean + SD lesion size(mm), day 15 of treatment [1]	Mean + SD lesion size(mm), day 18 of treatment [1]	Mean + SD lesion size(mm), day 25 of treatment [1]	Mean + SD lesion size(mm), day 28 of treatment [1]	also measured
1,8-Dihydroxy-3-methoxy-6-methyl-anthraquinone [Compound H3]	9.23±1.4 mm	7.28±2.1 mm	5.15±1.4 mm	3.41±1.8 mm	2.31±2.6 mm	zero	zero	zero	IC50 [2]: 19.38 µg/mL
C=CCCC/C=C\C/C=C\CCCCCCCc1cc(O)cc(O)c1 [5-heptadeca-8'Z,11'Z,16-trienylresorcinol]	–	–	–	–	–	–	–	–	IC50 [3]: 3.6 µg/mL (≈ 10.5 µM)
OCC(O)C(O)C(O)C(O)CO (stereo not shown) [Compound H1, Hexane-1,2,3,4,5,6-hexol]	9.95±1.5 mm	7.19±1.2 mm	4.85±1.2 mm	2.78±1.7 mm	1.21+1.1 mm	zero	zero	zero	IC50 ([2]; read-out: IC50): 6.5 µg/mL (≈ 35.7 µM)
O.O.O.O.O.O.O.O.O.O=C([O-])[C@@H]1[O][Sb](=[O])([O][Sb]2(=[O])[O][C@H]([C@H](O)CO)[C@H](O)[C@H](C(=O)[O-])[O]2)[O][C@H]([C@H](O)CO)[C@@H]1O.[Na+].[Na+].[Na+] (stereo partly shown) [Pentostam, reference compound]	9.56±1.3 mm	8.98±2.0 mm	7.45±1.8 mm	6.9±1.3 mm	5.39±3.1 mm	4.32±2.1 mm	3.30±2.1 mm	2.61±2.5 mm	complete heeling after 28 days ([1]; standard drug, 28 days): did not show complete heeling
C/C=C(/C)C(=O)OC[C@H]1C2=C(C[C@H]3[C@H]4C5=C(C(=O)C(C)=C(OC)C5=O)[C@H](O)[C@@H](CN13)N4C)C(=O)C(C)=C(OC)C2=O [Renieramycin A]	–	–	–	–	–	–	–	–	IC50 [4]: 0.2 µg·mL
C=C1C(=O)O[C@H]2C[C@@](C)(O)C3=CC[C@](C)(O)[C@@H]3C[C@H]12 [guaianolide]	–	–	–	–	–	–	–	–	IC50 [5]: 2.6 µg/mL (≈ 9.84 µM)
C=C1CCC[C@H]2[C@]1(CC[C@@]1(C)C3=CCCC(C)(C)[C@@H]3CC[C@@H]1C)CC[C@H](C)[C@]2(C)Cc1cc(OS(=O)(=O)O)ccc1OS(=O)(=O)O [isoakaterpin]	–	–	–	–	–	–	–	–	pIC50 [6]: 5.98
Diisooctylphthalate [Compound H2]	9.13±1.2 mm	6.18±1.2 mm	4.15±1.2 mm	1.11±1.2 mm	0.21±1.5 mm	zero	zero	zero	IC50 [2]: 3.2 µg/mL
